Results published in the NIST ThermoML archive (doi:10.1016/j.tca.2015.01.022).
± gives the expanded uncertainty stated by the source.

Assay: molar heat capacity at constant pressure
Conditions: 101.33 kPa, Small (less than 1 g) adiabatic calorimetry

CCCCn1cc[n+](C)c1.F[B-](F)(F)F [1-butyl-3-methylimidazolium tetrafluoroborate]
Conditions	molar heat capacity at constant pressure [J/K/mol]
5 K, Glass	1.47 ± 0.05
5.16 K, Glass	1.62 ± 0.048
5.39 K, Glass	1.822 ± 0.052
5.67 K, Glass	2.094 ± 0.058
5.96 K, Glass	2.397 ± 0.064
6.28 K, Glass	2.762 ± 0.071
6.64 K, Glass	3.192 ± 0.08
7 K, Glass	3.657 ± 0.089
7.36 K, Glass	4.172 ± 0.098
7.73 K, Glass	4.709 ± 0.11
8.11 K, Glass	5.283 ± 0.12
8.49 K, Glass	5.896 ± 0.13
8.87 K, Glass	6.54 ± 0.14
9.26 K, Glass	7.211 ± 0.15
9.64 K, Glass	7.915 ± 0.16
10 K, Glass	8.59 ± 0.18
10.03 K, Glass	8.641 ± 0.17
10.52 K, Glass	9.597 ± 0.18
11.13 K, Glass	10.83 ± 0.2
11.75 K, Glass	12.13 ± 0.21
12.36 K, Glass	13.44 ± 0.23
12.97 K, Glass	14.81 ± 0.24
13.59 K, Glass	16.22 ± 0.25
14.22 K, Glass	17.7 ± 0.26
14.85 K, Glass	19.2 ± 0.28
15 K, Glass	19.58 ± 0.28
15.58 K, Glass	20.98 ± 0.29
16.44 K, Glass	23.16 ± 0.3
17.29 K, Glass	25.28 ± 0.3
18.15 K, Glass	27.41 ± 0.31
19.01 K, Glass	29.55 ± 0.31
19.88 K, Glass	31.75 ± 0.31
20 K, Glass	32.08 ± 0.32
21.08 K, Glass	34.8 ± 0.33
22.63 K, Glass	38.75 ± 0.35
24.2 K, Glass	42.72 ± 0.37
25 K, Glass	44.7 ± 0.38
25.76 K, Glass	46.64 ± 0.38
27.21 K, Glass	50.17 ± 0.39
28.7 K, Glass	53.74 ± 0.4
30 K, Glass	56.8 ± 0.36
30.28 K, Glass	57.41 ± 0.36
32.02 K, Glass	61.38 ± 0.38
33.93 K, Glass	65.51 ± 0.4
35 K, Glass	67.76 ± 0.41
35.84 K, Glass	69.47 ± 0.42
37.75 K, Glass	73.26 ± 0.44
39.66 K, Glass	76.94 ± 0.46
40 K, Glass	77.68 ± 0.47
41.67 K, Glass	80.75 ± 0.48
43.78 K, Glass	84.66 ± 0.5
45 K, Glass	86.86 ± 0.52
45.89 K, Glass	88.43 ± 0.52
48 K, Glass	92.13 ± 0.54
50 K, Glass	95.33 ± 0.56
50.12 K, Glass	95.61 ± 0.56
52.24 K, Glass	99 ± 0.58
54.36 K, Glass	102.2 ± 0.6
56.48 K, Glass	105.3 ± 0.6
58.61 K, Glass	108.4 ± 0.6
60 K, Glass	110.5 ± 0.6
60.75 K, Glass	111.5 ± 0.6
62.88 K, Glass	114.5 ± 0.7
65.01 K, Glass	117.4 ± 0.7
67.14 K, Glass	120.3 ± 0.7
69.28 K, Glass	123.1 ± 0.7
70 K, Glass	124.2 ± 0.7
71.52 K, Glass	126 ± 0.7
73.86 K, Glass	129.1 ± 0.7
76.21 K, Glass	132.1 ± 0.8
78.57 K, Glass	135.1 ± 0.8
78.59 K, Glass	135 ± 0.8
80 K, Glass	136.7 ± 0.7
80.92 K, Glass	137.8 ± 0.8
81.08 K, Glass	138.2 ± 0.8
83.28 K, Glass	140.7 ± 0.8
83.48 K, Glass	140.7 ± 0.8
85.56 K, Glass	143.1 ± 0.8
85.91 K, Glass	143.3 ± 0.8
88.1 K, Glass	145.9 ± 0.8
88.36 K, Glass	146.1 ± 0.8
90 K, Glass	148.1 ± 0.8
90.56 K, Glass	148.7 ± 0.8
90.83 K, Glass	148.8 ± 0.8
93.04 K, Glass	151.5 ± 0.8
93.31 K, Glass	151.6 ± 0.8
95.54 K, Glass	154.3 ± 0.8
95.81 K, Glass	154.3 ± 0.8
98.06 K, Glass	156.9 ± 0.9
98.33 K, Glass	156.9 ± 0.9
100 K, Glass	158.7 ± 0.8
100.58 K, Glass	159.4 ± 0.9
100.87 K, Glass	159.6 ± 0.9
103.12 K, Glass	162 ± 0.9
103.41 K, Glass	162.3 ± 0.9
105.68 K, Glass	164.7 ± 0.9
105.97 K, Glass	164.9 ± 0.9
108.24 K, Glass	167.2 ± 0.9
108.53 K, Glass	167.4 ± 0.9
110 K, Glass	169 ± 0.9
110.81 K, Glass	169.8 ± 0.9
111.11 K, Glass	170.1 ± 0.9
113.39 K, Glass	172.7 ± 0.9
113.69 K, Glass	172.7 ± 0.9
115.97 K, Glass	175.1 ± 0.9
116.27 K, Glass	175.4 ± 0.9
118.56 K, Glass	177.8 ± 1
118.87 K, Glass	178 ± 1
120 K, Glass	179.2 ± 1
121.16 K, Glass	180.5 ± 1
121.47 K, Glass	180.7 ± 1
123.76 K, Glass	183.1 ± 1
124.08 K, Glass	183.2 ± 1
126.37 K, Glass	185.5 ± 1
126.68 K, Glass	185.8 ± 1
128.98 K, Glass	188.1 ± 1
129.3 K, Glass	188.4 ± 1
130 K, Glass	189.1 ± 1
131.59 K, Glass	190.7 ± 1
131.91 K, Glass	191 ± 1
133.42 K, Glass	192.4 ± 1
134.2 K, Glass	193.3 ± 1
134.53 K, Glass	193.6 ± 1
136.1 K, Glass	195 ± 1
136.82 K, Glass	195.9 ± 1
137.15 K, Glass	196.2 ± 1.1
138.71 K, Glass	197.7 ± 1.1
139.43 K, Glass	198.3 ± 1.1
139.77 K, Glass	198.7 ± 1.1
140 K, Glass	198.9 ± 1.1
141.33 K, Glass	200.2 ± 1.1
142.05 K, Glass	201.1 ± 1.1
142.38 K, Glass	201.3 ± 1.1
143.94 K, Glass	202.8 ± 1.1
144.67 K, Glass	203.6 ± 1.1
145 K, Glass	203.9 ± 1.1
146.55 K, Glass	205.4 ± 1.1
147.29 K, Glass	206.3 ± 1.1
147.63 K, Glass	206.5 ± 1.1
149.17 K, Glass	208 ± 1.1
149.9 K, Glass	209.1 ± 1.1
150 K, Glass	208.9 ± 1.1
150.24 K, Glass	209.1 ± 1.1
151.78 K, Glass	210.6 ± 1.1
152.52 K, Glass	211.6 ± 1.1
152.86 K, Glass	211.8 ± 1.1
154.39 K, Glass	213.3 ± 1.1
155.13 K, Glass	214.2 ± 1.1
155.48 K, Glass	214.4 ± 1.1
157 K, Glass	216 ± 1.1
157.74 K, Glass	216.9 ± 1.2
158.09 K, Glass	217.2 ± 1.2
159.61 K, Glass	218.7 ± 1.2
160 K, Glass	219.3 ± 1.2
160.35 K, Glass	219.7 ± 1.2
160.71 K, Glass	219.9 ± 1.2
162.21 K, Glass	221.6 ± 1.2
162.96 K, Glass	222.4 ± 1.2
163.32 K, Glass	222.8 ± 1.2
164.8 K, Glass	224.5 ± 1.2
165.57 K, Glass	225.6 ± 1.2
165.93 K, Glass	225.7 ± 1.2
167.4 K, Glass	227.5 ± 1.2
168.19 K, Glass	228.6 ± 1.2
168.53 K, Glass	228.9 ± 1.2
169.99 K, Glass	230.8 ± 1.2
170 K, Glass	230.8 ± 1.2
170.79 K, Glass	232 ± 1.2
171.13 K, Glass	232.5 ± 1.2
172.58 K, Glass	234.6 ± 1.2
173.37 K, Glass	236 ± 1.2
173.73 K, Glass	236.7 ± 1.2
175.18 K, Glass	239.5 ± 1.3
175.96 K, Glass	241.5 ± 1.3
176.31 K, Glass	242.4 ± 1.3
177.73 K, Glass	247 ± 1.3
178.51 K, Glass	249.7 ± 1.3
178.86 K, Glass	251.9 ± 1.3
180 K, Glass	260.4 ± 1.3
180.22 K, Glass	262.1 ± 1.4
180.97 K, Glass	268.6 ± 1.4
181.29 K, Liquid	276.1 ± 1.5
182.48 K, Liquid	309.1 ± 1.6
183.17 K, Liquid	322.3 ± 1.7
183.45 K, Liquid	329.7 ± 1.7
184.59 K, Liquid	329.2 ± 1.7
185.3 K, Liquid	329.5 ± 1.7
185.6 K, Liquid	330 ± 1.7
186.77 K, Liquid	331 ± 1.7
187.48 K, Liquid	331.6 ± 1.7
187.79 K, Liquid	331.2 ± 1.7
188.95 K, Liquid	331.4 ± 1.7
189.98 K, Liquid	331.5 ± 1.7
190 K, Liquid	331.5 ± 1.7
191.13 K, Liquid	331.6 ± 1.7
192.17 K, Liquid	331.7 ± 1.7
193.32 K, Liquid	331.9 ± 1.7
194.37 K, Liquid	332 ± 1.7
195.51 K, Liquid	332.2 ± 1.7
196.58 K, Liquid	332.3 ± 1.7
197.71 K, Liquid	332.5 ± 1.7
198.79 K, Liquid	332.6 ± 1.7
199.91 K, Liquid	332.8 ± 1.7
200 K, Liquid	333 ± 1.7
202.13 K, Liquid	333.2 ± 1.7
204.34 K, Liquid	333.6 ± 1.7
206.55 K, Liquid	334 ± 1.7
208.77 K, Liquid	334.5 ± 1.7
210 K, Liquid	335.1 ± 1.7
210.99 K, Liquid	334.9 ± 1.7
213.22 K, Liquid	335.4 ± 1.7
215.44 K, Liquid	335.9 ± 1.7
220 K, Liquid	337.5 ± 1.8
230 K, Liquid	340.4 ± 1.8
240 K, Liquid	343.6 ± 1.8
250 K, Liquid	347.2 ± 1.8
260 K, Liquid	350.9 ± 1.8
263.82 K, Liquid	351.8 ± 1.8
266.12 K, Liquid	352.8 ± 1.8
268.4 K, Liquid	353.7 ± 1.8
270 K, Liquid	354.9 ± 1.8
270.68 K, Liquid	354.6 ± 1.8
272.95 K, Liquid	355.5 ± 1.8
275.23 K, Liquid	356.5 ± 1.8
277.5 K, Liquid	357.6 ± 1.8
279.78 K, Liquid	358.5 ± 1.8
280 K, Liquid	359 ± 1.8
282.05 K, Liquid	359.5 ± 1.8
284.33 K, Liquid	360.3 ± 1.9
286.6 K, Liquid	361.3 ± 1.9
288.87 K, Liquid	362.4 ± 1.9
290 K, Liquid	363.2 ± 1.9
291.14 K, Liquid	363.3 ± 1.9
293.42 K, Liquid	364.3 ± 1.9
295.69 K, Liquid	365.2 ± 1.9
297.95 K, Liquid	366.4 ± 1.9
298.15 K, Liquid	366.7 ± 1.9
300 K, Liquid	367.6 ± 1.9
300.22 K, Liquid	367.4 ± 1.9
302.49 K, Liquid	368.5 ± 1.9
304.75 K, Liquid	369.6 ± 1.9
307.02 K, Liquid	370.7 ± 1.9
309.28 K, Liquid	371.7 ± 1.9
310 K, Liquid	372.3 ± 1.9
311.54 K, Liquid	372.7 ± 1.9
313.8 K, Liquid	373.8 ± 1.9
316.06 K, Liquid	375 ± 1.9
318.32 K, Liquid	376.1 ± 1.9
320 K, Liquid	377 ± 1.9
320.58 K, Liquid	377 ± 1.9
322.83 K, Liquid	378 ± 1.9
325.09 K, Liquid	379.3 ± 1.9
327.34 K, Liquid	380.1 ± 1.9
329.59 K, Liquid	381.1 ± 2
330 K, Liquid	381.7 ± 1.9
331.84 K, Liquid	382.2 ± 2
334.09 K, Liquid	383.3 ± 2
336.34 K, Liquid	384.3 ± 2
338.58 K, Liquid	385.6 ± 2
340 K, Liquid	386.4 ± 1.9
340.83 K, Liquid	386.7 ± 2
343.08 K, Liquid	387.6 ± 2
345.32 K, Liquid	388.7 ± 2
347.57 K, Liquid	389.7 ± 2
349.81 K, Liquid	390.7 ± 2
350 K, Liquid	391.1 ± 2
352.05 K, Liquid	391.7 ± 2
354.29 K, Liquid	392.8 ± 2
356.53 K, Liquid	393.9 ± 2
358.76 K, Liquid	394.9 ± 2
360 K, Liquid	395.9 ± 2
361 K, Liquid	395.8 ± 2
363.23 K, Liquid	397.1 ± 2
365.46 K, Liquid	398 ± 2
367.7 K, Liquid	399 ± 2
370 K, Liquid	400.6 ± 2
